Measured values published in patent US7846655B2, “Compositions and methods for detecting a non plus-stranded RNA virus” (priority 2003, dated 2010).
Read-outs that look alike come from different tables or passages of the source.

What was measured:
influenza A = type: cell-based; details: FluA, 24 hours, control 189 ± 012
influenza B = type: cell-based; details: FluB, 24 hours, control 455 ± 022
adenovirus = type: cell-based; details: Adeno, 24 hours, control 863 ± 100
RSV = type: cell-based; details: 24 hours, control 116 ± 012
parainfluenza 1 = type: cell-based; details: Para1, 24 hours, control 245 ± 018
parainfluenza 2 = type: cell-based; details: Para2, 24 hours, control 243 ± 012
parainfluenza 3 = type: cell-based; details: Para3, 24 hours, control 142 ± 014
human coronavirus 229E = test: Replication of human coronavirus 229E (inventors' data, E64); type: cell-based; details: no conditions given
SARS-coronavirus = details: Yount et al. PNAS 100:12995-13000 (2003); cited from earlier work
[1] = Glycycrrhizin 0.152 micrograms/ml
[2] = Glycycrrhizin 1.216 micrograms/ml
[3] = Glycycrrhizin 6.08 micrograms/ml

CCCCC[C@H](CC(=O)NO)C(=O)N[C@H](C(=O)N1CCC[C@H]1CO)C(C)C [Actinonin]
Number of Infected Foci In R-Mix Cell Cultures (influenza A; Actinonin 10 micrograms/ml): 171 | Number of Infected Foci In R-Mix Cell Cultures (influenza A; Actinonin 20 micrograms/ml): 122 | Number of Infected Foci In R-Mix Cell Cultures (influenza A; Actinonin 40 micrograms/ml): 118 | Number of Infected Foci In R-Mix Cell Cultures (influenza B; Actinonin 10 micrograms/ml): 317 | Number of Infected Foci In R-Mix Cell Cultures (influenza B; Actinonin 20 micrograms/ml): 260 | Number of Infected Foci In R-Mix Cell Cultures (influenza B; Actinonin 40 micrograms/ml): 190 | Number of Infected Foci In R-Mix Cell Cultures (adenovirus; Actinonin 10 micrograms/ml): 781 | Number of Infected Foci In R-Mix Cell Cultures (adenovirus; Actinonin 20 micrograms/ml): 383 | Number of Infected Foci In R-Mix Cell Cultures (adenovirus; Actinonin 40 micrograms/ml): 147 | Number of Infected Foci In R-Mix Cell Cultures (RSV; Actinonin 10 micrograms/ml): 103 | Number of Infected Foci In R-Mix Cell Cultures (RSV; Actinonin 20 micrograms/ml): 64 | Number of Infected Foci In R-Mix Cell Cultures (RSV; Actinonin 40 micrograms/ml): 41 | Number of Infected Foci In R-Mix Cell Cultures (parainfluenza 1; Actinonin 10 micrograms/ml): 222 | Number of Infected Foci In R-Mix Cell Cultures (parainfluenza 1; Actinonin 20 micrograms/ml): 191 | Number of Infected Foci In R-Mix Cell Cultures (parainfluenza 1; Actinonin 40 micrograms/ml): 160 | Number of Infected Foci In R-Mix Cell Cultures (parainfluenza 2; Actinonin 10 micrograms/ml): 220 | Number of Infected Foci In R-Mix Cell Cultures (parainfluenza 2; Actinonin 20 micrograms/ml): 196 | Number of Infected Foci In R-Mix Cell Cultures (parainfluenza 2; Actinonin 40 micrograms/ml): 151 | Number of Infected Foci In R-Mix Cell Cultures (parainfluenza 3; Actinonin 10 micrograms/ml): 115 | Number of Infected Foci In R-Mix Cell Cultures (parainfluenza 3; Actinonin 20 micrograms/ml): 104 | Number of Infected Foci In R-Mix Cell Cultures (parainfluenza 3; Actinonin 40 micrograms/ml): 75

CC1(C)[C@@H](O[C@H]2O[C@H](C(=O)O)[C@@H](O)[C@H](O)[C@H]2O[C@@H]2O[C@H](C(=O)O)[C@@H](O)[C@H](O)[C@H]2O)CC[C@]2(C)[C@H]3C(=O)C=C4[C@@H]5C[C@@](C)(C(=O)O)CC[C@]5(C)CC[C@@]4(C)[C@]3(C)CC[C@@H]12 [Glycycrrhizin, Glycyrrhizin]
Number of Infected Foci In R-Mix Cell Cultures (influenza A; [1]): 218 | Number of Infected Foci In R-Mix Cell Cultures (influenza A; [2]): 175 | Number of Infected Foci In R-Mix Cell Cultures (influenza A; [3]): 163 | Number of Infected Foci In R-Mix Cell Cultures (influenza B; [1]): 426 | Number of Infected Foci In R-Mix Cell Cultures (influenza B; [2]): 402 | Number of Infected Foci In R-Mix Cell Cultures (influenza B; [3]): 273 | Number of Infected Foci In R-Mix Cell Cultures (adenovirus; [1]): 766 | Number of Infected Foci In R-Mix Cell Cultures (adenovirus; [2]): 938 | Number of Infected Foci In R-Mix Cell Cultures (adenovirus; [3]): 1061 | Number of Infected Foci In R-Mix Cell Cultures (RSV; [1]): 130 | Number of Infected Foci In R-Mix Cell Cultures (RSV; [2]): 103 | Number of Infected Foci In R-Mix Cell Cultures (RSV; [3]): 53 | Number of Infected Foci In R-Mix Cell Cultures (parainfluenza 1; [1]): 268 | Number of Infected Foci In R-Mix Cell Cultures (parainfluenza 1; [2]): 233 | Number of Infected Foci In R-Mix Cell Cultures (parainfluenza 1; [3]): 295 | Number of Infected Foci In R-Mix Cell Cultures (parainfluenza 2; [1]): 265 | Number of Infected Foci In R-Mix Cell Cultures (parainfluenza 2; [2]): 257 | Number of Infected Foci In R-Mix Cell Cultures (parainfluenza 2; [3]): 281 | Number of Infected Foci In R-Mix Cell Cultures (parainfluenza 3; [1]): 138 | Number of Infected Foci In R-Mix Cell Cultures (parainfluenza 3; [2]): 149 | Number of Infected Foci In R-Mix Cell Cultures (parainfluenza 3; [3]): 138

CC(C)C[C@H](NC(=O)[C@H]1O[C@@H]1C(=O)O)C(=O)NCCCCN=C(N)N (relative stereo) [E64, trans-Epoxysuccinyl-L-leucylamido-(4-guanidino)butane]
Number of Infected Foci In R-Mix Cell Cultures (influenza A; E64 0.5 micrograms/ml): 174 | Number of Infected Foci In R-Mix Cell Cultures (influenza A; E64 5 micrograms/ml): 179 | Number of Infected Foci In R-Mix Cell Cultures (influenza A; E64 10 micrograms/ml): 176 | Number of Infected Foci In R-Mix Cell Cultures (influenza B; E64 0.5 micrograms/ml): 398 | Number of Infected Foci In R-Mix Cell Cultures (influenza B; E64 5 micrograms/ml): 328 | Number of Infected Foci In R-Mix Cell Cultures (influenza B; E64 10 micrograms/ml): 323 | Number of Infected Foci In R-Mix Cell Cultures (adenovirus; E64 0.5 micrograms/ml): 904 | Number of Infected Foci In R-Mix Cell Cultures (adenovirus; E64 5 micrograms/ml): 868 | Number of Infected Foci In R-Mix Cell Cultures (adenovirus; E64 10 micrograms/ml): 865 | Number of Infected Foci In R-Mix Cell Cultures (RSV; E64 0.5 micrograms/ml): 107 | Number of Infected Foci In R-Mix Cell Cultures (RSV; E64 5 micrograms/ml): 115 | Number of Infected Foci In R-Mix Cell Cultures (RSV; E64 10 micrograms/ml): 103 | Number of Infected Foci In R-Mix Cell Cultures (parainfluenza 1; E64 0.5 micrograms/ml): 251 | Number of Infected Foci In R-Mix Cell Cultures (parainfluenza 1; E64 5 micrograms/ml): 243 | Number of Infected Foci In R-Mix Cell Cultures (parainfluenza 1; E64 10 micrograms/ml): 207 | Number of Infected Foci In R-Mix Cell Cultures (parainfluenza 2; E64 0.5 micrograms/ml): 223 | Number of Infected Foci In R-Mix Cell Cultures (parainfluenza 2; E64 5 micrograms/ml): 221 | Number of Infected Foci In R-Mix Cell Cultures (parainfluenza 2; E64 10 micrograms/ml): 205 | Number of Infected Foci In R-Mix Cell Cultures (parainfluenza 3; E64 0.5 micrograms/ml): 127 | Number of Infected Foci In R-Mix Cell Cultures (parainfluenza 3; E64 5 micrograms/ml): 99 | replication of human coronavirus 229E (human coronavirus 229E): inhibition in replication

CCOC(=O)[C@H]1O[C@@H]1C(=O)N[C@@H](CC(C)C)C(=O)NCCC(C)C [(2S,3S)transepoxysuccinyl-L-leucylamido-3-methylbutane ethyl ester]
replication of SARS-coronavirus (SARS-coronavirus): inhibition in replication
